Experiments:
OATP2B1 [1] = molecular target: T1, OATP2B1 (Homo sapiens, UniProt O94956); conditions: read-out: IC50, reduction of influx of substrates of OATP2B1; cited from earlier work
T1 sequence (O94956 1-709): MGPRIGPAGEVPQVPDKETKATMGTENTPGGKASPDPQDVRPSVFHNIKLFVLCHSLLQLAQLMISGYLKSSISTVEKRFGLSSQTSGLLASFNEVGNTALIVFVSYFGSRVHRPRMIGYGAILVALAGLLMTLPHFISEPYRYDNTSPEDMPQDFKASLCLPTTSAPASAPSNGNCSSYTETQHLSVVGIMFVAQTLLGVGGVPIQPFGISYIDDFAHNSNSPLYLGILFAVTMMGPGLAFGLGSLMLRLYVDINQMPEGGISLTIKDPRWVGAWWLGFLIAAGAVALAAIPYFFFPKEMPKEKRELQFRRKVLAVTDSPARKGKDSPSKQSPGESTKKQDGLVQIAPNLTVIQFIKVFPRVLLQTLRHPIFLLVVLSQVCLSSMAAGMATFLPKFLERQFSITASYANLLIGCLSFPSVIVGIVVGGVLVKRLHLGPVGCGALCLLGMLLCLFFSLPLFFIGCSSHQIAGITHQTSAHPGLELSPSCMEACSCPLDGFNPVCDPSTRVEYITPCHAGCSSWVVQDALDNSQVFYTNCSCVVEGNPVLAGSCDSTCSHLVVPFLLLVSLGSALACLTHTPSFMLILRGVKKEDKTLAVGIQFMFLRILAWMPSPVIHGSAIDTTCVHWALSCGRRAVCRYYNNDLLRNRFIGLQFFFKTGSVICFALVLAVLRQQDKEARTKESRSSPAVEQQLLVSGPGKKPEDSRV

P-glycoprotein (Pgp) = P-glycoprotein (Pgp) (Homo sapiens, UniProt P08183); assay: Caco-2 transport of CA with Pgp inhibitor GF120918; assay type: in vitro ADME; conditions: 2 μM GF120918
Sequence of P-glycoprotein (Pgp) (P08183 whole entry): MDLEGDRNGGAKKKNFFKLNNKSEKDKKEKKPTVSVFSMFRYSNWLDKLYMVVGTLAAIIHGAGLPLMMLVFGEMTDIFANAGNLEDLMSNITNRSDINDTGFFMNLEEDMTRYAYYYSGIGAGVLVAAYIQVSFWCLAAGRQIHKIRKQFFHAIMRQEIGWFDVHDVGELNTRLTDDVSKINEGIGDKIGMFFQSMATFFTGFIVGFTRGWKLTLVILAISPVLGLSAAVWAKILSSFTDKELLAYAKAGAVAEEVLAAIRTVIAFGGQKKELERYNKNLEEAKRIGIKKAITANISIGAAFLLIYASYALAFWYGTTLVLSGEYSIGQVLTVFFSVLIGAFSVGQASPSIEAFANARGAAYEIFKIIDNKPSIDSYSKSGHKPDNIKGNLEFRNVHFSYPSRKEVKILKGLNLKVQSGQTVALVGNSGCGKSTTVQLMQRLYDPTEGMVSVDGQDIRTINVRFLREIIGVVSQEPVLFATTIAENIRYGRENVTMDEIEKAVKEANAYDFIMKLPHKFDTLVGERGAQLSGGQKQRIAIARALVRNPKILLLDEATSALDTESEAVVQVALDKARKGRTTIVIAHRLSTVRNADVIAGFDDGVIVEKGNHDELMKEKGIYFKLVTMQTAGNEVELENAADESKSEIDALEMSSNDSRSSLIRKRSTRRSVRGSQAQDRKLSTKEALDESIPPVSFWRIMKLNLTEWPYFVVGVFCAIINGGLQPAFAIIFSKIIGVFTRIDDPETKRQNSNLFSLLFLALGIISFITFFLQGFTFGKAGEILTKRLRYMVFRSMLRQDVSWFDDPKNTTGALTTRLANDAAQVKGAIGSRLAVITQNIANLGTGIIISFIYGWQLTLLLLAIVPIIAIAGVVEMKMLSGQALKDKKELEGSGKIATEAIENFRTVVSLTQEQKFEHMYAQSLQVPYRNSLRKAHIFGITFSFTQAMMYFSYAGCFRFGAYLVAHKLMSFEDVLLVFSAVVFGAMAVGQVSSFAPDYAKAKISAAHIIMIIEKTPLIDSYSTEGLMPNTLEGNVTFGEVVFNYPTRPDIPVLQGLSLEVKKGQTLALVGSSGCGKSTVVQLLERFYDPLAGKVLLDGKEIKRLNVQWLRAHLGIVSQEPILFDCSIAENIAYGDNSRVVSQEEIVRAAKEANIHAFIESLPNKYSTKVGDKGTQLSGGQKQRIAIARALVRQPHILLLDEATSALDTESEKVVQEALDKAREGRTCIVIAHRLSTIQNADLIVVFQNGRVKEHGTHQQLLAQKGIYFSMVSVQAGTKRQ

OATP2B1 [2] = molecular target: T1, OATP2B1; assay: Caco-2 transport of CA with OATP2B1 inhibitor baicalin; assay type: in vitro ADME; conditions: 6 μM baicalin

Row | Decrease of Papp B–A after GF120918 treatment (P-glycoprotein (Pgp)) [%] | Decrease of Papp B–A after baicalin treatment (OATP2B1 [2]) [%] | Compound | IC50 (OATP2B1 [1]) [µM]
1 |  |  | O=C(O)[C@H]1O[C@@H](Oc2cc3oc(-c4ccccc4)cc(=O)c3c(O)c2O)[C@H](O)[C@@H](O)[C@@H]1O [baicalin] | 5.6 ± 3.2
2 | 62 | 63 | Chicoric acid [CA] | 

— publication PMC9304723 (Heliyon, 2022)
